Test results published in article PMC10989020, “Preclinical characterization of a non-peptidomimetic HIV protease inhibitor with improved metabolic stability” (Antimicrobial Agents and Chemotherapy, 2024).

Experiments:
[1] = tested on: HIV-1 Gag (p55) polyprotein cleavage; assay: Gag polyprotein processing immunoblot in transfected HEK293T cells; type: cell-based; settings: 2 days post-transfection, anti-p24 immunoblot
[2] = Metabolic stability of radiolabeled GS-9770 in human liver microsomes; type: in vitro ADME; settings: radiolabeled GS-9770, human liver microsomes
[3] = In vivo pharmacokinetics in rat; design: species or system Sprague-Dawley rat
Method: (§1) Preclinical pharmacokinetic studies were performed in male Sprague–Dawley rats, beagle dogs, and cynomolgus monkeys (three animals per dosing group in each species) following federal and Institutional Animal Care and Use Committee (IACUC) guidelines as described previously ([32]). […] The oral fraction absorbed (F%) was calculated using the formula:
(§2) %F=( PO Dose AUC0−inf) x (IV Dose)/(IV Dose AUC0−inf) x (PO Dose)×100%

[4] = In vivo pharmacokinetics in dog; design: species or system Beagle dog
Method: as §1, §2

[5] = In vivo pharmacokinetics in monkey; settings: cynomolgus monkey
Method: as §1, §2

[6] = Cytotoxicity in uninfected MT-4 cells; type: cell-based, human; settings: human, uninfected (mock infected) MT-4 T cells, MT-4 T cell line
Method: (§3) Compound cytotoxicity assessment in MT-4 cells, primary CD4+ T lymphocytes, and MDMs was carried out using a protocol identical to the antiviral assay except uninfected cells were used and tested with higher concentration ranges of test compounds. Assessment of cytotoxicity in additional human cell lines (Gal-PC3, Gal-HepG2, HEp-2, Huh-7, MRC-5, HepG2-NTCP, Huh7-Lunet HCV 1b and 2a replicons, NHBE, A549-hACE2) and primary human PBMCs (resting and stimulated with PHA/IL-2) and hepatocytes have been described previously ([19]). For all cytotoxicity assays, the CC50 value for puromycin was determined as a positive internal control and to assess assay sensitivity in each cell type. The effect of tested compounds on cell viability was measured using a CellTiter-Glo readout, performed according to the manufacturer’s recommendations.

[7] = tested on: HIV-1 BaL; assay: p24 production antiviral assay in monocyte-derived macrophages; type: cell-based; settings: Human immunodeficiency virus 1, Macrophage, HIV-1BaL infected
Source text: Antiviral assays performed in HIV-1BaL infected CD4 +T-lymphocytes and monocyte-derived macrophages (MDMs) have been described previously ([18]). Cell-free supernatants derived from the CD4 +T cell and macrophage cultures were harvested 7- and 12-days post-infection, respectively, and the amount of HIV present was quantified by p24 antigen enzyme-linked immunosorbent assay (ELISA, Perkin Elmer, Waltham, MA) performed according to the manufacturer’s protocol.

[8] = Cytotoxicity in Gal-PC3; type: cell-based; settings: human, Gal-PC3 cells
Method: as §3

[9] = Cytotoxicity in Huh-7; type: cell-based; settings: human, Huh-7 cells
Method: as §3

[10] = Cytotoxicity in MRC-5; type: cell-based; settings: human, MRC-5 cells
Method: as §3

[11] = tested on: 20 HIV-1 clinical isolates; assay: Antiviral assay in PBMCs with HIV-1 clinical isolates (RT endpoint); type: cell-based; settings: Human immunodeficiency virus 1, PBMC, 168 h, read-out: mean EC50
Method: (§4) Antiviral assays using fresh human PBMCs independently infected with a panel of clinical HIV-1 and HIV-2 isolates were performed by Southern Research as a contracted research study and assessed 7 days post-infection using reverse transcriptase (RT) endpoint assay. Antiviral assays using HIV-1 reporter viruses containing patient-derived sequences encoding all of PR and a portion of RT (amino acids 1–313) and conferring resistance to FDA-approved HIV PIs were performed by Monogram Biosciences Inc. (South San Francisco, CA) using their previously described Phenosense assay ([25]).

[12] = tested on: two HIV-2 isolates; assay: Antiviral assay in PBMCs with HIV-2 clinical isolates (RT endpoint); type: cell-based; settings: Human immunodeficiency virus 2, PBMC, 168 h, 7-day, RT activity
Method: as §4

[13] = tested on: HIV-1IIIb; assay: Two-drug in vitro combination assay in MT-2 cells (MacSynergy II); type: cell-based
Method: Anti-HIV-1 assays evaluating the in vitro antiviral effect of two-drug combinations were performed in MT-2 cells as previously described ([26]). Data were normalized to positive and negative controls in each plate and expressed as a percentage of protection from CPE-dependent cell death and analyzed with the MacSynergy II software. Combination data were analyzed at the 99% confidence level, with synergy/antagonism volumes defined as follows: high synergy (>100 µM^2%), moderate synergy (50 to <100 uM^2%), additivity (>−50 to <50 µM^2%), and antagonism (<−50 µM^2%).

[14] = tested on: RSV; assay: RSV-Fluc reporter antiviral assay; settings: human respiratory syncytial virus, NHBE
Method: The hepatitis B virus (HBV) surface antigen (HBsAg) antiviral assay was performed as previously described ([28]) using ND-654 as a positive control. The respiratory syncytial virus (RSV) A2 HEp-2 antiviral assay was performed as previously described ([29]) using YM-53403 as a positive control. The severe acute respiratory syndrome coronavirus 2 (SARS-CoV-2) antiviral assay was performed as described previously ([30]) using remdesivir as a positive control.

[15] = tested on: HCV-1b; assay: microbe, parasite or virus in culture; settings: Hepatitis C virus, Huh-7

CC(C)(CC1(c2ccc(-c3cnn(C4CC4)n3)cc2)NC(=N)N(C(COC(=O)NC2(C(F)F)CC2)c2ccc(Cl)c(-c3ncnn3C(F)F)c2)C1=O)C(F)(F)F (centres unmarked) [GS-9770]
concentration at which Gag polyprotein cleavage and release of mature p24 substantially reduced [1]: 10 nM
concentration giving complete inhibition of p24 formation [1]: 100 nM
predicted human plasma clearance [2]: 1.5 mL/min/kg
F% (oral bioavailability) ([3]; 1 mg/kg IV and 5 mg/kg PO): 45.9 ± 9.8%
tolerability at the doses tested ([3]; 1 mg/kg IV, 4–5 mg/kg PO): well tolerated
clearance ([3]; male, Sprague-Dawley, plasma, 1 mg/kg IV): 3.5 mL/min/kg
half-life ([3]; male, Sprague-Dawley, plasma, 1 mg/kg IV and 5 mg/kg PO, read-out: Terminal t1/2 (converted)): 10.6 ± 1.4 h
Vd ([3]; male, Sprague-Dawley, plasma, 1 mg/kg IV, read-out: Vss): 2.7 ± 0.3 L/kg
bioavailability ([3]; male, Sprague-Dawley, plasma, oral, 5 mg/kg, 1 mg/kg IV and 5 mg/kg PO, read-out: F% (oral bioavailability)): 49%
CL ([4]; 1 mg/kg IV, 1 mg/kg): 18.3 ± 5 mL/min/kg
tolerability at the doses tested ([4]; 1 mg/kg IV, 4–5 mg/kg PO): well tolerated
bioavailability ([4]; beagle, plasma, 1 mg/kg IV and 5 mg/kg PO, read-out: F% (oral bioavailability)): 100 ± 20%
half-life ([4]; beagle, plasma, 1 mg/kg IV and 5 mg/kg PO, read-out: Terminal t1/2 (converted)): 6.7 ± 0.6 h
Vd ([4]; beagle, plasma, 1 mg/kg IV, read-out: Vss): 5 ± 0.5 L/kg
clearance ([4]; beagle, plasma, iv, 1 mg/kg, 1 mg/kg IV): 18.8 mL/min/kg
tolerability at the doses tested ([5]; 1 mg/kg IV, 4–5 mg/kg PO): well tolerated
clearance ([5]; plasma, 1 mg/kg IV): 5.67 mL/min/kg
bioavailability ([5]; plasma, 1 mg/kg IV and 4 mg/kg PO, read-out: F% (oral bioavailability)): 100 ± 34%
half-life ([5]; plasma, 1 mg/kg IV and 4 mg/kg PO, read-out: Terminal t1/2 (converted)): 7.4 ± 0.2 h
Vd ([5]; plasma, 1 mg/kg IV, read-out: Vss): 2.6 ± 0.8 L/kg
CC50 [6]: 6.6 ± 1.3 µM
EC50 [7]: 0.011 ± 0.014 µM
CC50 [8]: 15 ± 4 µM
CC50 [9]: 17 ± 3 µM
CC50 [10]: 20 ± 6 µM
EC50 [11]: 0.0073 µM
EC50 [12]: 0.026 µM
Antagonism volume [13]: −3 ± 3 µM^2.%
Combination effect [13]: Additive
Synergy volume [13]: 23 ± 14 µM^2.%
EC50 [14]: 2.5 ± 0.6 µM
EC50 [15]: 10.8 ± 0.5 µM
